Results on 1 molecule are retold here after paper PMC8047873, “An antibiotic-resistance conferring mutation in a neisserial porin: Structure, ion flux, and ampicillin binding” (Biochimica et Biophysica Acta. Biomembranes, 2021).

This experiment deals with T1, PorB (wt PorB) (Neisseria meningitidis, UniProt M4GGR4).
T1 construct: outer membrane porin, homotrimer, purified in LDAO and inserted in planar lipid bilayers or liposomes; about 340 residues; expression as described previously
The experiment is described as follows: single-channel electrophysiology, planar black lipid membrane, JULES idealization. The format is binding. The settings on record: +80 mV, 1 M KCl, 10 mM HEPES, pH 7.5; DPhPC/cholesterol 9:1; pore block.

T1 sequence (M4GGR4 entry or part of it): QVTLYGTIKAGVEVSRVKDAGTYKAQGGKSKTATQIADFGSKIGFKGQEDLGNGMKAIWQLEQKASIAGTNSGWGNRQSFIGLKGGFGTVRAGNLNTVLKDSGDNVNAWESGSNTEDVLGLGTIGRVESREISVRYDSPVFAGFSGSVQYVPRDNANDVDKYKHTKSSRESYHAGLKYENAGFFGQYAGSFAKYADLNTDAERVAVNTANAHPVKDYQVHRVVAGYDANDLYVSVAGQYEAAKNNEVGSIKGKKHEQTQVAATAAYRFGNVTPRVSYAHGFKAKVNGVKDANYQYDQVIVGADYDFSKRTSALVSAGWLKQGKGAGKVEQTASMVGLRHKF

As to `CC1(C)S[C@@H]2[C@H](NC(=O)[C@H](N)c3ccccc3)C(=O)N2[C@H]1C(=O)O` [ampicillin], the “residence time τR” value is given as 35 ± 1 μs.
